According to patent EP0218359A1, “Conditioning natural gas streams with preferential physical solvents” (EL PASO HYDROCARBONS COMPANY, priority 1985, dated 1987):

What was measured:
Format in all cases: physicochemical
[1] = preferential factor (relative volatility of methane over ethane multiplied by solubility of ethane in solvent); conditions: relative volatility of methane over ethane x solubility of ethane in solvent
From the text: The preferential physical solvents are defined for the purposes of this invention as having a minimum relative volatility of methane over ethane of at least 5.0 (thereby defining its improved selectivity toward ethane over methane) and in addition a solubility of at least 1.77 normal cubic meters of gaseous hydrocarbons per cubic meter of the solvent (Nm^3/m^3) (thereby defining its hydrocarbon loading capacity), or, alternatively, a preferential factor of at least 8.85. The preferential factor for physical solvent selection for the Mehra Process is defined as a product of relative volatility of methane over ethane multiplied by the solubility of ethane in physical solvents, specified as normal cubic meters of ethane per cubic meter of solvent. […] This combination of minimum relative volatility and minimum solubility enables solvent flow rate variations and operating pressure and temperature variations to be selectively 'utilized in the Mehra Process for flexibly producing liquid products having selected hydrocarbon compositions.
Relative Volatilities of Ethane/Methane, Solubilities of Ethane in Solvent, and combined Preferential Factors are given in the following Table II for NMP, DMF, a common lean oil, the minimum solvent having desired requirements for Mehra Process applications, DMPEG, mesitylene, and the ideal solvent in the Mehra Process. […]

[2] = relative volatility of methane over ethane in the presence of the solvent
From the text: (§1) The preferential factor for physical solvent selection for the Mehra Process is defined as a product of relative volatility of methane over ethane multiplied by the solubility of ethane in physical solvents, specified as normal cubic meters of ethane per cubic meter of solvent.

[3] = solubility of hydrocarbons in the solvent (hydrocarbon loading capacity); conditions: normal cubic meters of gaseous hydrocarbons per cubic meter of the solvent
From the text: as §1

Compound | preferential factor [1] | relative volatility for methane with respect to ethane [2] | solubility of hydrocarbons [3] [Nm^3/m^3]
dimethyl ether of polyethylene glycol [DMPEG] | 45 | 6.4 | 7.0
CN1CCCC1=O [NMP, N-methyl pyrrolidone] | 1.1 | 5.3 | 0.2
